Reference: patent publication US11478471B2, “Methods and compositions for treating diabetes, metabolic syndrome and other conditions” (priority 2005, dated 2022)
≈ marks a conversion by molar mass, not a printed value. Read-outs that look alike come from different tables or passages of the source.

Columns and labels:
[1] = Toxicokinetics in the 28 day dog study of DIO-902 (with racemic ketoconazole group a); conditions: male, beagle, plasma, po, dogs; for concentration at 12 h / concentration at 0 h / concentration at 1 h / concentration at 2 h / concentration at 4 h / concentration at 8 h: Drug concentration in plasma; for Tmax: Tmax Range; for AUC(0-t): AUC(0-12);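 for all read-outs here: beagle dogs dosed orally once daily within a 28-day GLP study, 3 animals per sex per group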
Candida kefyr = experiment: Antifungal MIC; assay type: cell-based; conditions: Kluyveromyces marxianus, DSM11954; DSM strain 11954, 48 h
testosterone levels = experiment: Testosterone levels in rats after oral dosing; assay type: in vivo, Sprague Dawley rats; conditions: for Testosterone levels (mean ± SEM): 4 h after gavage
From the text: There was a single control group (dosed with vehicle).
The means of the vehicle treated groups are used as the time zero control point.

plasma corticosterone = experiment: Plasma corticosterone in rats after oral dosing (ELISA); assay type: in vivo, Sprague Dawley rats; conditions: for Corticosteroid Levels (mean ± SEM): 4 h after gavage
Method: To generate the results shown in FIG. 1, five groups (eight per group) of rats were used. The rats were maintained on a 14/10 hour light/dark cycle and allowed free access to food and water. Each rat was dosed (200 mg drug/kg body weight) via a gastric tube. […] All of the rats were dosed between 2.00 and 3.00 pm and were sacrificed four hours later (between 6.00 and 7.00 pm). Plasma was prepared and the concentration of corticosterone determined by an enzyme linked immuno assay (ELISA). In rats, the predominant active glucocorticoid is corticosterone; in humans, the predominant active glucucorticoid is the closely related molecule cortisol.
The rats were maintained and dosed as described above. Plasma was prepared and the concentration of corticosterone in the plasma determined by ELISA.
The rats were maintained as described above; the drugs were suspended in olive oil, and each rat was dosed once via gastric tube to achieve a dose of 200 mg/kg. All of the rats were dosed at a specific time so that all terminations occurred between 6 and 7 pm. […] Following sacrifice, plasma was prepared, and the concentration of corticosterone in the plasma was determined by ELISA. In the same plasma samples, total cholesterol levels were also determined.
In the Table, corticosterone levels (mean±SEM; ng/mL) were determined four hours after oral gavage of the indicated drug (N=10/group). There was a single control group (dosed with vehicle).
Corticosterone levels (mean±SEM; ng/mL) were determined at the indicated times after oral gavage of the indicated drug at 200 mg/kg. […] The means of the vehicle treated groups are used as the time zero control point.

Saccharomyces cerevisiae = experiment: Antifungal MIC; assay type: cell-based; conditions: DSM01333, DSM strain 01333, 48 h
Candida guilliermondii = experiment: Antifungal MIC; assay type: cell-based; conditions: Meyerozyma guilliermondii, DSM11947; DSM strain 11947, 48 h
Candida glabrata = experiment: Antifungal MIC; assay type: cell-based; conditions: Nakaseomyces glabratus, read-out: MIC
Candida tropicalis = experiment: Antifungal MIC; assay type: cell-based; conditions: read-out: MIC
Cryptococcus neoformans = experiment: Antifungal MIC; assay type: cell-based
[2] = 2 mg/kg, 2 mg/kg oral, day 28, M
[3] = 6.5 mg/kg, 6.5 mg/kg oral, day 28, M
[4] = 6.5 mg/kg, 6.5 mg/kg oral, day 1, M
[5] = 20 mg/kg, 20 mg/kg oral, day 1, M
[6] = 20 mg/kg, 20 mg/kg oral, day 28, M

CC(=O)N1CCN(c2ccc(OC[C@@H]3CO[C@@](Cn4ccnc4)(c4ccc(Cl)cc4Cl)O3)cc2)CC1 [DIO-902, 2S,4R cis-1-acetyl-4-[4-[[2-(2,4-dichlorophenyl)-2-(1H-imidazol-1-ylmethyl)-1,3-dioxolan-4-yl]methoxyl]phenyl]piperazine]
concentration at 12 h [1, 2]: < 250 ng/mL | Tmax ([1]; 2 mg/kg, 2 mg/kg oral, day 1, M): 1 to 2 h | Tmax [1, 2]: 1 to 4 h | AUC(0-t) ([1]; 6.5 mg/kg, 6.5 mg/kg oral, day 1, M, n = 2): 12200 ng·h/mL | AUC(0-t) [1, 3]: 14600 ng·h/mL | Cmax [1, 4]: 2000 ng/mL | Cmax [1, 3]: 2010 ng/mL | concentration at 0 h [1, 4]: < 250 ng/mL | concentration at 1 h [1, 4]: 1190 ng/mL | concentration at 2 h [1, 4]: 1620 ng/mL | concentration at 4 h [1, 4]: 1250 ng/mL | concentration at 8 h [1, 4]: 410 ng/mL | concentration at 12 h [1, 4]: 400 ng/mL | concentration at 0 h [1, 3]: < 250 ng/mL | concentration at 1 h [1, 3]: 1170 ng/mL | concentration at 2 h [1, 3]: 1390 ng/mL | concentration at 4 h [1, 3]: 1540 ng/mL | concentration at 8 h [1, 3]: 1330 ng/mL | concentration at 12 h [1, 3]: 880 ng/mL | Tmax [1, 4]: 1 to 4 h | Tmax [1, 3]: 1 to 8 h | AUC(0-t) [1, 5]: 60600 ng·h/mL | AUC(0-t) [1, 6]: 80000 ng·h/mL | Cmax [1, 5]: 9380 ng/mL | Cmax [1, 6]: 9940 ng/mL | concentration at 0 h [1, 5]: < 250 ng/mL | concentration at 1 h [1, 5]: 7050 ng/mL | concentration at 2 h [1, 5]: 8300 ng/mL | concentration at 4 h [1, 5]: 6150 ng/mL | concentration at 8 h [1, 5]: 2920 ng/mL | concentration at 12 h [1, 5]: 6740 ng/mL | concentration at 0 h [1, 6]: 1190 ng/mL | concentration at 1 h [1, 6]: 9130 ng/mL | concentration at 2 h [1, 6]: 9780 ng/mL | concentration at 4 h [1, 6]: 8170 ng/mL | concentration at 8 h [1, 6]: 5860 ng/mL | concentration at 12 h [1, 6]: 4250 ng/mL | Tmax [1, 5]: 1 to 4 h | Tmax [1, 6]: 2 to 4 h | MIC (Candida kefyr): 0.03 µg/mL (≈ 0.0565 µM) | time for testosterone levels to return to normal (testosterone levels; 200 mg/kg): ≤ 8 h | Testosterone levels (mean ± SEM) (testosterone levels; single oral 50 mg/kg): 2.6 ± 0.7 nmol/L | Testosterone levels (mean ± SEM) (testosterone levels; single oral 100 mg/kg): 0.8 ± 0.3 nmol/L | Testosterone levels (mean ± SEM), time course (testosterone levels; single oral 200 mg/kg, 4 h): 0.8 ± 0.2 nmol/L | Testosterone levels (mean ± SEM) (testosterone levels; single oral 200 mg/kg): 0.2 ± 0.1 nmol/L | Testosterone levels (mean ± SEM), time course (testosterone levels; single oral 200 mg/kg, 8 h): 5.9 ± 0.8 nmol/L | Testosterone levels (mean ± SEM), time course (testosterone levels; single oral 200 mg/kg, 12 h): 3.4 ± 0.5 nmol/L | Testosterone levels (mean ± SEM), time course (testosterone levels; single oral 200 mg/kg, 16 h): 3.9 ± 0.6 nmol/L | Testosterone levels (mean ± SEM), time course (testosterone levels; single oral 200 mg/kg, 20 h): 5.2 ± 0.6 nmol/L | Testosterone levels (mean ± SEM), time course (testosterone levels; single oral 200 mg/kg, 24 h): 4.4 ± 0.7 nmol/L | Testosterone levels (mean ± SEM) (testosterone levels; single oral 400 mg/kg): 0.3 ± 0.1 nmol/L | Testosterone levels (mean ± SEM) (testosterone levels; single oral 600 mg/kg): 0 ± 0 nmol/L | Corticosteroid Levels (mean ± SEM) (plasma corticosterone; single oral 50 mg/kg): 186 ± 14.9 ng/mL | Corticosteroid Levels (mean ± SEM) (plasma corticosterone; single oral 100 mg/kg): 139 ± 10.9 ng/mL | Corticosteroid Levels (mean ± SEM), time course (plasma corticosterone; single oral 200 mg/kg, 4 h): 98 ± 10 ng/mL | Corticosteroid Levels (mean ± SEM) (plasma corticosterone; single oral 200 mg/kg): 100 ± 8.6 ng/mL | Corticosteroid Levels (mean ± SEM), time course (plasma corticosterone; single oral 200 mg/kg, 8 h): 116 ± 13 ng/mL | Corticosteroid Levels (mean ± SEM), time course (plasma corticosterone; single oral 200 mg/kg, 12 h): 113 ± 8 ng/mL | Corticosteroid Levels (mean ± SEM), time course (plasma corticosterone; single oral 200 mg/kg, 16 h): 133 ± 17 ng/mL | Corticosteroid Levels (mean ± SEM), time course (plasma corticosterone; single oral 200 mg/kg, 20 h): 136 ± 12 ng/mL | Corticosteroid Levels (mean ± SEM), time course (plasma corticosterone; single oral 200 mg/kg, 24 h): 103 ± 14 ng/mL | Corticosteroid Levels (mean ± SEM) (plasma corticosterone; single oral 400 mg/kg): 84 ± 11.6 ng/mL | Corticosteroid Levels (mean ± SEM) (plasma corticosterone; single oral 600 mg/kg): 80 ± 7.8 ng/mL | MIC (Saccharomyces cerevisiae): 0.25 µg/mL (≈ 0.47 µM) | MIC (Candida guilliermondii): 0.06 µg/mL (≈ 0.113 µM) | MIC (Candida glabrata; DSM11226, DSM strain 11226, 48 h): 0.5 µg/mL (≈ 0.941 µM) | MIC (Candida glabrata; DSM11950, DSM strain 11950, 48 h): 0.25 µg/mL (≈ 0.47 µM) | MIC (Candida tropicalis; DSM11951, DSM strain 11951, 48 h): 0.06 µg/mL (≈ 0.113 µM) | MIC (Candida tropicalis; DSM11952, DSM strain 11952, 48 h): 2 µg/mL (≈ 3.76 µM) | MIC (Candida tropicalis; DSM11953, DSM strain 11953, 48 h): 0.06 µg/mL (≈ 0.113 µM) | MIC (Cryptococcus neoformans; DSM11959, DSM strain 11959, 48 h): 0.03 µg/mL (≈ 0.0565 µM) | MIC (Cryptococcus neoformans; DSM11960, DSM strain 11960, 48 h): 0.125 µg/mL (≈ 0.235 µM)
